From PubChem BioAssay AID1996 come the findings set out here.

In brackets after ≈: the same amount, converted by molar mass.

The conditions of the data set: buffer; pH 7.4; 200.0 µM.
Take `CCOC(=O)N1CCN(C(=O)CCc2ccc(S(=O)(=O)NCC(C)C)cc2)CC1`: the kinetic solubility was 59.6 µg/mL (≈ 140 µM).

For the molecule `Cc1nc2sc3c(c2c(=O)n1NC(=O)CCl)CCCC3`, the kinetic solubility is over 46.8 µg/mL.

The molecule `CCN(C(=O)Cn1c([N+](=O)[O-])cnc1C)c1ccccc1` had a solubility (kinetic) of over 43.2 µg/mL.

`CC(C)c1ccccc1NC1=NCCCS1` gave a solubility (kinetic) of 35 µg/mL (≈ 149 µM).

The molecule `Cc1cccc(CCNCc2cc3cccc(C)c3[nH]c2=O)c1` came in with a kinetic solubility of 45.9 µg/mL (≈ 150 µM).

`Cc1cc(C)cc(NC(=S)NCc2ccncc2)c1` showed a solubility (kinetic) of 20.6 µg/mL (≈ 75.9 µM).

`CN1C(=O)/C(=C/c2cc3c(cc2Br)OCO3)NC1=S` displayed a solubility (kinetic) of under 0.4 µg/mL.

In the case of `CC(=O)Nc1ccc(NC(=O)c2c(C)noc2C)cc1`, the solubility (kinetic) was over 41 µg/mL.

In turn, `Cc1ccc(S(=O)(=O)N2CCOCC2)cc1NC(=O)COC(=O)C1(C)CC1(Cl)Cl` (stereo not drawn) came in with a solubility (kinetic) of over 69.8 µg/mL.

In turn, `Cc1ccccc1C(=O)Nc1ccnc(-c2ccncc2)n1` displayed a kinetic solubility of 0.5 µg/mL (≈ 1.72 µM).

In the case of `O=C(Nc1ccccc1)Nc1cccc2nsnc12`, the solubility (kinetic) was found to be 5.7 µg/mL (≈ 21.1 µM).

In the case of `Cc1cc(C)cc(C(=O)OCC(=O)N2CCCCCC2)c1`, the kinetic solubility was over 43.4 µg/mL.

The molecule `CCC1CCC2(CC1)NC(=O)N(CC(=O)N1CCc3ccccc31)C2=O` (stereo not drawn) yielded a solubility (kinetic) of 3.4 µg/mL (≈ 9.57 µM).

`COc1ccc(/C=C2\N=C(c3ccc(C)cc3)OC2=O)cc1`: the solubility (kinetic) turned out to be 3.5 µg/mL (≈ 11.9 µM).

`O=[N+]([O-])c1ccc2nc(NS(=O)(=O)c3ccccc3[N+](=O)[O-])sc2c1` returned a kinetic solubility of 55.7 µg/mL (≈ 146 µM).

For `Cc1cc(C(=O)OCC(=O)Nc2ccc(F)cc2)c(C)n1C1CC1`, the kinetic solubility was 6.2 µg/mL (≈ 18.8 µM).

For the molecule `Cc1c(C)n(Cc2ccccc2)c2ncnc(Cl)c12`, the solubility (kinetic) is 0.3 µg/mL (≈ 1.1 µM).

As to `CCCC(=O)C1=C(N2CCCC2)CC(C)(C)C(C(=O)OC)C1=O` (stereo not drawn), the solubility (kinetic) amounted to 44.9 µg/mL (≈ 140 µM).

`COc1ccc(C)c2sc(=NC(=O)c3cccc(N4C(=O)CCC4=O)c3)n(C)c12` displayed a kinetic solubility of under 0.3 µg/mL.

In the case of `Cc1ccc(S(=O)(=O)N2CCN(c3cccc(C)c3)CC2)cc1`, the kinetic solubility was under 0.4 µg/mL.

In turn, `Cc1csc(NC(=O)COc2ccc3c(c2)CCC3)n1` gave a solubility (kinetic) of 6.9 µg/mL (≈ 23.9 µM).

In turn, `CC(C)C(OC(=O)c1ccc(Cl)nc1)C(=O)NC1CCCCC1` (stereo not drawn) had a kinetic solubility of 29.7 µg/mL (≈ 87.7 µM).

`CN(CC(=O)N(C)CC(=O)Nc1c(Cl)cccc1Cl)Cc1ccccc1F` returned a solubility (kinetic) of over 61.8 µg/mL.

`CCc1ccc(OCC(=O)OCC(=O)NC2CCCC(C)C2C)cc1` (stereo not drawn) came in with a kinetic solubility of 9.2 µg/mL (≈ 26.5 µM).

`COc1ccc(Cl)cc1NC(=O)CSc1cccc[n+]1[O-]` displayed a solubility (kinetic) of over 48.7 µg/mL.

`Cn1c(=O)[nH]c(=O)c2c1[nH]c(=S)n2Cc1ccccc1`: the solubility (kinetic) is over 43.2 µg/mL.

`CCC(=O)Nc1cccc(C(=O)OC)c1`: the solubility (kinetic) is 29.4 µg/mL (≈ 142 µM).

Turning to `COC(=O)c1sccc1NC(=O)Nc1ccc(C)cc1`, the kinetic solubility was 10.1 µg/mL (≈ 34.8 µM).

For `CC1SCC(=O)N(CC(=O)NCCc2ccccc2)C1=O` (stereo not drawn), the solubility (kinetic) was over 46 µg/mL.

In turn, `CC(=O)N(C)c1ccc(NC(=O)Nc2ccc(Cl)cc2)cc1` returned a solubility (kinetic) of 45.2 µg/mL (≈ 142 µM).

For the molecule `NC(=O)Cc1nc(-c2ccc(F)cc2)cs1`, the solubility (kinetic) is over 35.4 µg/mL.

`Cc1cccc(C)c1NC(=O)CN(C)CC(=O)N1CC(=O)Nc2ccccc21`: the solubility (kinetic) was over 57.1 µg/mL.

On to `CC(=O)O.O=C(NCC1CCCCN1)c1cc(OCC(F)(F)F)ccc1OCC(F)(F)F` (stereo not drawn), for which the solubility (kinetic) is over 71.2 µg/mL.

With `COc1cc(C(NC=O)C(=O)Nc2c(C)cccc2C)ccc1O` (stereo not drawn), the kinetic solubility stood at 45.4 µg/mL (≈ 138 µM).

For the molecule `CSc1cccc(NC(C)C(=O)NCc2ccccc2)c1` (stereo not drawn), the kinetic solubility came out at 37.4 µg/mL (≈ 124 µM).

Take `S=c1[nH]c2cc(Br)cnc2[nH]1`: the solubility (kinetic) was 34.4 µg/mL (≈ 150 µM).

The molecule `Cc1cc(C(=O)Nc2ccncc2)c2ccccc2n1` showed a solubility (kinetic) of 26.3 µg/mL (≈ 99.9 µM).

Molecule `COc1cc(OC)cc(C(=O)NCC(C)NC(=O)c2cc(OC)cc(OC)c2)c1` (stereo not drawn) registered a kinetic solubility of 39.6 µg/mL (≈ 98.4 µM).

Take `CCOc1ccc(NC(=O)COC(=O)CN2CCCCCC2=O)cc1`: the solubility (kinetic) was over 52.3 µg/mL.

Turning to `CC1CCC(NC(=O)Cn2c(=O)oc3ccccc32)CC1` (stereo not drawn), the kinetic solubility is 4.9 µg/mL (≈ 17 µM).

As to `Cc1cc2nc(=O)c(/C=C3\C=Nc4ccccc43)c(N)n2o1`, the solubility (kinetic) was under 0.2 µg/mL.

Consider `NC(=O)C1CCN(C(=O)NC(=O)c2ccccc2)CC1`, for which the kinetic solubility is over 41.3 µg/mL.

On to `CCc1nc(N2CCCCC2C(=O)O)c2oc3ccccc3c2n1` (stereo not drawn), for which the kinetic solubility is over 48.8 µg/mL.

In turn, `CC1CN(S(=O)(=O)c2ccc(C(=O)N(C)C3CCCCC3)cc2)CC(C)O1` (stereo not drawn) displayed a solubility (kinetic) of over 59.2 µg/mL.

With `CC(=O)Nc1ccccc1NC(=O)c1ccc(C)c(C)c1`, the kinetic solubility is over 42.4 µg/mL.

Take `CCC1(C)Cc2ccccc2C(=O)N1` (stereo not drawn): the solubility (kinetic) turned out to be 25.2 µg/mL (≈ 133 µM).

`Cc1ccccc1OCC(=O)Nc1cccc(Cl)c1C` registered a solubility (kinetic) of under 0.6 µg/mL.

As to `O=c1c2cc([N+](=O)[O-])ccc2nc2n1CCCC2`, the solubility (kinetic) was over 36.8 µg/mL.

In turn, `CCC(=O)c1c(NC(C)C)cc(C)oc1=O` returned a kinetic solubility of over 33.5 µg/mL.

With `CCCC(=O)NCc1nc2ccccc2n1CC(=O)c1ccccc1`, the solubility (kinetic) is over 50.3 µg/mL.

`Cc1cccc(S(=O)(=O)Nc2cc(Cl)ccc2N2CCOCC2)c1` yielded a solubility (kinetic) of 3.6 µg/mL (≈ 9.81 µM).

For `COc1ccccc1CCC(=O)OCC(=O)NC1CCCCC1`, the kinetic solubility is 43.7 µg/mL (≈ 137 µM).

The molecule `COc1ccccc1N1CC(C(=O)Nc2ccc(S(=O)(=O)N3CCCC3)cc2)CC1=O` (stereo not drawn) gave a solubility (kinetic) of over 66.5 µg/mL.

Consider `O=C1NCCCCC1NS(=O)(=O)c1cccc(C(F)(F)F)c1` (stereo not drawn), for which the kinetic solubility was over 50.4 µg/mL.

For the molecule `CC(=O)NCCCNS(=O)(=O)c1ccc(C)cc1`, the solubility (kinetic) amounted to 32.2 µg/mL (≈ 119 µM).

For `CC(C)(C)C(=O)/C=C1\SCC(=O)N1CC(=O)N1CCN(c2ccccc2)CC1`, the solubility (kinetic) was 33.7 µg/mL (≈ 83.9 µM).

In turn, `O=C1COc2ccc(S(=O)(=O)NCCc3ccccc3)cc2N1` had a solubility (kinetic) of 13 µg/mL (≈ 39.1 µM).

On to `O=C(Nc1nc2ccccc2[nH]1)c1cccc(F)c1`, for which the solubility (kinetic) was found to be 6.6 µg/mL (≈ 25.9 µM).

As to `CCN(C(=S)NC(=O)C1CC1)c1ccccc1`, the kinetic solubility is over 37.3 µg/mL.

Molecule `O=C(O)c1ccccc1NCc1cccs1` had a kinetic solubility of 23.8 µg/mL (≈ 102 µM).

As to `Cc1nc(NC(=O)CCN2C(=O)C3CC=CCC3C2=O)sc1C` (stereo not drawn), the kinetic solubility is over 50 µg/mL.

Turning to `CN1CCN(c2nnc(-c3ccc(F)cc3)c3ccccc23)CC1`, the solubility (kinetic) is over 48.4 µg/mL.

`CCOP(=O)(OCC)C(O)c1cccc([N+](=O)[O-])c1` (stereo not drawn) had a kinetic solubility of 39.2 µg/mL (≈ 136 µM).

`COc1ccc(C(=O)N2CCC(C(=O)c3c(C)cc(C)cc3C)CC2)cc1`: the kinetic solubility came to 31.4 µg/mL (≈ 85.9 µM).

`CSC1=NCCN1C(=O)c1c(-c2c(F)cccc2Cl)noc1C`: the solubility (kinetic) is over 53.1 µg/mL.

Molecule `O=C1CC2C(=O)NCCN2C(=NC(=O)c2ccc(Cl)cc2)N1` (stereo not drawn) showed a kinetic solubility of 23.5 µg/mL (≈ 73.3 µM).

As for `O=C(CC1NCCN(Cc2ccccc2)C1=O)Nc1ccccc1` (stereo not drawn), the kinetic solubility was found to be 41.5 µg/mL (≈ 128 µM).

Molecule `CC(CCc1ccc(O)cc1)NCCC(c1ccccc1)c1ccccc1` (stereo not drawn) displayed a kinetic solubility of 53.4 µg/mL (≈ 149 µM).

`COC1=C(Nc2ccccc2OC)C(=O)c2ccccc2C1=O` registered a solubility (kinetic) of 17.2 µg/mL (≈ 55.6 µM).

As to `COc1ccccc1NC(=O)COc1ccccc1C(=O)Nc1ccccc1`, the kinetic solubility was 5.9 µg/mL (≈ 15.7 µM).

`COC(=O)[C@H](Cc1ccccc1)NC(=O)Nc1ccc(OC)cc1` came in with a kinetic solubility of 47 µg/mL (≈ 143 µM).

In turn, `COC(=O)C1CCN(C(=O)CN2C(=O)NC3(CCC(C)CC3)C2=O)CC1` (stereo not drawn) yielded a kinetic solubility of over 54.8 µg/mL.

The molecule `COC(=O)c1cc(NC(=S)NC(=O)c2ccccc2)ccc1N1CCOCC1` gave a solubility (kinetic) of 1.8 µg/mL (≈ 4.51 µM).

Broadly, the kinetic solubility is solubility judged after dilution from a stock solution rather than from solid.
